What is called IC50 is the concentration at which inhibition is half-maximal. For orientation: inhibition means the relative decrease from the control value, in per cent.

A value given as a limit tells only on which side of the number the result lay.

The target of the first test is SARS-CoV-2 main protease (Mpro) (Severe acute respiratory syndrome coronavirus 2, UniProt P0DTD1). Description: biochemical. Particulars: Table 2; read-out: Enzyme IC50.
For the compound `Cc1cncc(C(=O)N2CCN(C(c3cccc(F)c3)c3ccccc3S(C)(=O)=O)CC2)c1` (stereo not shown) [NZ-817, [4-[(3-fluorophenyl)-(2-methylsulfonylphenyl)methyl]piperazin-1-yl]-(5-methyl-3-pyridyl)methanone], the IC50 is 33 nM.

In the case of `CC(C)(C)OC(=O)NCc1cncc(C(=O)N2CCN(C(c3ccccc3)c3ccccc3)CC2)c1` [PKJ-703, tert-butyl ((5-(4-benzhydrylpiperazine-1-carbonyl)pyridin-3-yl)methyl)carbamate], the half-inhibitory concentration (IC50) amounted to 930 nM. Same read-out and setting: in the case of `O=C(c1cncc2cc[nH]c12)N1CCC(=C(c2cccc(O)c2)c2cccc(O)c2)CC1` [MKP-1410, (4-(bis(3-hydroxyphenyl)methylene)piperidin-1-yl)(1H-pyrrolo[3,2-c]pyridin-7-yl)methanone] it was 41 nM. Same read-out and setting: then `Cc1cncc(C(=O)N2CCC(N(c3cccc(F)c3)c3cccc(F)c3)CC2)c1` [MKP-1404, (4-(bis(3-fluorophenyl)amino)piperidin-1-yl)(5-methylpyridin-3-yl)methanone], with 2660 nM; and `COc1ccccc1C(=C1CCN(C(=O)c2cncc(C)c2)CC1)c1ccccn1` [MKP-1440, (4-((2-methoxyphenyl)(pyridin-2-yl)methylene)piperidin-1-yl)(5-methylpyridin-3-yl)methanone], with 170 nM; and `O=C1Nc2ccc(F)cc2C1CC(=O)N1CCN(C(c2ccccc2)c2ccccc2)CC1` (stereo not shown) [PKJ-663, 3-(2-(4-benzhydrylpiperazin-1-yl)-2-oxoethyl)-5-fluoroindolin-2-one], with over 80000 nM. Turning to `Cc1cncc(C(=O)N2CCC(=C(c3ccccn3)c3ccccn3)CC2)c1` [MKP-1422, (4-(di(pyridin-2-yl)methylene)piperidin-1-yl)(5-methylpyridin-3-yl)methanone], the IC50 stood at 110 nM. The same measure, in the same setting: then `Cc1cncc(C(=O)N2CCC(=C(c3cccnc3)c3cccc(O)c3)CC2)c1` [MKP-1392, (4-((3-hydroxyphenyl)(pyridin-3-yl)methylene)piperidin-1-yl)(5-methylpyridin-3-yl)methanone], with 93 nM. On the same count and under the same terms, then `Cc1cc(C(=O)N2CCN(C3c4ccccc4CS(=O)(=O)c4ccccc43)CC2)cnc1N` (stereo not shown) [NZ-819, (6-amino-5-methyl-3-pyridyl)-[4-(5,5-dioxo-6,11-dihydrobenzo[c][1]benzothiepin-11-yl)piperazin-1-yl]methanone], with 20000 nM. Regarding `CS(=O)(=O)c1ccccc1C(c1ccccc1)N1CCN(C(=O)c2cncc3cc[nH]c23)CC1` (stereo not shown) [NZ-814, [4-[(2-methylsulfonylphenyl)-phenyl-methyl]piperazin-1-yl]-(1H-pyrrolo[3,2-c]pyridin-7-yl)methanone], the IC50 came to 53 nM.

Consider `Cc1cncc(C(=O)N2CCN(C(c3ccccc3)c3ccncc3)CC2)c1` (stereo not shown) [MKP-1442, (5-methylpyridin-3-yl)(4-(phenyl(pyridin-4-yl)methyl)piperazin-1-yl)methanone], for which the IC50 turned out to be 1600 nM. Still for that read-out and setting: then `Cc1cncc(C(=O)N2CCC(=C(c3ccccc3)c3ccccn3)CC2)c1` [MKP-1400, (5-methylpyridin-3-yl)(4-(phenyl(pyridin-2-yl)methylene)piperidin-1-yl)methanone], with 74 nM; and `Cc1cncc(C(=O)N2CCC(=C(c3ccccc3)c3ccncc3)CC2)c1` [MKP-1398, (5-methylpyridin-3-yl)(4-(phenyl(pyridin-4-yl)methylene)piperidin-1-yl)methanone], with 580 nM. Still for that read-out and setting: then `NCc1cncc(C(=O)N2CCN(C(c3ccccc3)c3ccccc3)CC2)c1` [PKJ-704, (5-(aminomethyl)pyridin-3-yl)(4-benzhydrylpiperazin-1-yl)methanone], with 1600 nM. In the case of `Cc1cncc(C(=O)N2CCC(=C(c3cccc(O)c3)c3cccc(O)c3)CC2)c1` [MKP-1381, (4-(bis(3-hydroxyphenyl)methylene)piperidin-1-yl)(5-methylpyridin-3-yl)methanone], the IC50 turned out to be 94 nM. Still for that read-out and setting: in the case of `O=C(c1cncc2cc[nH]c12)N1CCC(N(c2ccccc2)c2ccccc2)CC1` [AA-667, [4-(N-phenylanilino)-1-piperidyl]-(1H-pyrrolo[3,2-c]pyridin-7-yl)methanone] it was 3320 nM; in that of `O=C1CN(C(=O)N2CCN(C3c4ccccc4CS(=O)(=O)c4ccccc43)CC2)c2ccccc2N1` (stereo not shown) [NZ-812, 4-[4-(5,5-dioxo-6,11-dihydrobenzo[c][1]benzothiepin-11-yl)piperazine-1-carbonyl]-1,3-dihydroquinoxalin-2-one], 550 nM; in that of `Cc1cncc(C(=O)N2CCC(=C(c3ccccc3)c3cccc(F)c3)CC2)c1` [MKP-1360, (4-((3-fluorophenyl)(phenyl)methylene)piperidin-1-yl)(5-methylpyridin-3-yl)methanone], 35 nM. For `O=C(c1cncc(Br)c1)N1CCN(C(c2ccccc2)c2cccnc2)CC1` (stereo not shown) [MKP-1200, 1-(5-bromopyridine-3-carbonyl)-4-[phenyl(pyridin-3-yl)methyl]piperazine], the IC50 turned out to be 320 nM. Still for that read-out and setting: in the case of `Cc1cncc(C(=O)N2CCC(=C(c3cccc(F)c3)c3cccc(F)c3)CC2)c1` [MKP-1349, (4-(bis(3-fluorophenyl)methylene)piperidin-1-yl)(5-methylpyridin-3-yl)methanone] it was 42 nM. On the same count and under the same terms, then `Cc1cncc(C(=O)N2CCC(=C(c3ccc(F)cc3)c3cccc(F)c3)CC2)c1` [MKP-1359, (4-((3-fluorophenyl)(4-fluorophenyl)methylene)piperidin-1-yl)(5-methylpyridin-3-yl)methanone], with 44 nM; and `CC(=O)Nc1ncc(C(=O)N2CCN(C3c4ccccc4CS(=O)(=O)c4ccccc43)CC2)cc1C` (stereo not shown) [NZ-820, N-[5-[4-(5,5-dioxo-6,11-dihydrobenzo[c][1]benzothiepin-11-yl)piperazine-1-carbonyl]-3-methyl-2-pyridyl]acetamide], with over 80000 nM.

`Cc1cncc(C(=O)N2CCC(=C(c3ccccc3)C3CCCCC3)CC2)c1` [MKP-1421, (4-(cyclohexyl(phenyl)methylene)piperidin-1-yl)(5-methylpyridin-3-yl)methanone]: the IC50 was determined as 920 nM. Still for that read-out and setting: in the case of `Cc1cncc(C(=O)N2CCN(C(c3ccccc3)c3ccccn3)CC2)c1` (stereo not shown) [MKP-1416, (5-methylpyridin-3-yl)(4-(phenyl(pyridin-2-yl)methyl)piperazin-1-yl)methanone] it was 176 nM; in that of `O=C(c1cnccc1Cl)N1CCN(C2c3ccccc3CCc3ccccc32)CC1` [ZS-331, (4-chloro-3-pyridyl)-[4-(2-tricyclo[9.4.0.03,8]pentadeca-1(11),3(8),4,6,12,14-hexaenyl)piperazin-1-yl]methanone], 370 nM.

Staying with this test, now noted: read-out: Enzyme inhibition @ 20 uM.
Turning to `O=C(c1cncnc1)N1CCN(C(c2ccccc2)c2cccnc2)CC1` (stereo not shown) [MKP-1189, 5-{4-[phenyl(pyridin-3-yl)methyl]piperazine-1-carbonyl}pyrimidine], the inhibition at 20 µM is 60%. On the same count and under the same terms, in the case of `O=C(C1CNCCO1)N1CCN(C(c2ccccc2)c2ccccc2)CC1` (stereo not shown) [AA-582, (4-benzhydrylpiperazin-1-yl)(morpholin-2-yl)methanone] it was 60%. Still for that read-out and setting: in the case of `O=C(c1cnccn1)N1CCN(C(c2ccccc2)c2cccnc2)CC1` (stereo not shown) [MKP-1188, 2-{4-[phenyl(pyridin-3-yl)methyl]piperazine-1-carbonyl}pyrazine] it was 50%.

Source of the values: patent US20250084091A1, “INHIBITORS OF SARS-COV-2” (The Texas A&M University System, priority 2021, published 2025).
